Laboratory results published in US20030229066A1, “Novel heterocyclic urea derivatives and their use as dopamine D3 receptor ligands” (priority 2001, published 2003).
Read-outs that look alike come from different tables or passages of the source.

Experiments:
[1] = molecular target: T1, cloned human alpha-1A adrenergic receptors (α1a) (Homo sapiens, UniProt P35348); experiment: [3H]Prazosin binding to cloned human alpha-1A adrenergic receptors expressed in CHO cells; settings: for Ki: Table II, pairs of 6-fluoro and 6-trifluoromethyl benzo[b]thiophenes, read-out: halpha1Ki
T1 construct: expressed in transfected cells
T1 sequence (P35348 1-466): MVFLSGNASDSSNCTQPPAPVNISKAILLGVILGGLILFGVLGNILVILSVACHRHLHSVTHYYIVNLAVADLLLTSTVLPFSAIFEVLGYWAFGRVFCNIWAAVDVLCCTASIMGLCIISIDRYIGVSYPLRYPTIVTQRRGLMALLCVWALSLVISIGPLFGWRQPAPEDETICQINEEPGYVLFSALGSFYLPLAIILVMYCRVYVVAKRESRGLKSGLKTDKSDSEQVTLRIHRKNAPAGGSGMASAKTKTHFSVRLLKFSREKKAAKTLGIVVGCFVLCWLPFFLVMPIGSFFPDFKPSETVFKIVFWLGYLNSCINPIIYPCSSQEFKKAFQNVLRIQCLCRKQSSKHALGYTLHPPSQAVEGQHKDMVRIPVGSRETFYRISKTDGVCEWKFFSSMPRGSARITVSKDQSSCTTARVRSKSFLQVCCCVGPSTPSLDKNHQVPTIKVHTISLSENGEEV
Excerpt: [^3H]PRAZOSIN BINDING TO CLONED HUMAN ALPHA-1A ADRENERGIC RECEPTORS (α1a) EXPRESSED IN CHINESE HAMSTER OVARY CELLS (CHO)
This in vitro assay is designed as a screen to identify compounds displaying a affinity for the human α1a adrenoceptor subtype expressed in the membrane fragments of CHO cells. The assay-measures the ability of the test compounds to displace [^3H]prazosin from α1a sites.
Therefore, the binding of compounds to α1a adrenergic receptors is believed to be a good measure of a compound's potential to cause orthostatic hypotension and sedation as side effects. Prazosin is a potent antagonist of the human α1a-adrenoceptor subtype, which has been cloned and is expressed in the membrane fragments of CHO cells.
The cloning of the human α1a cDNA was accomplished first by screening a human prostate cDNA library (Clontech), from which a portion of the coding region was obtained. This DNA fragment was then used to screen a human leukocyte genomic library (Clontech), and the rest of the coding sequence was obtained. Later these two fragments were spliced together. The entire coding sequence was then fully sequenced including matching PCR sequence with original genomic coding sequence, thus ensuring splice sites were joined correctly (Schwinn et al., 1995). Once sequenced, the gene was subcloned into the expression vector pcDNA3 (Invitrogen). Plasmid DNA was then used for transfection into CHO cells and G418 resistant clones were isolated. A clone expressing high levels of the hα1a receptor (as determined by mRNA and receptor binding data) was chosen and pharmacologically characterized.
[7-methoxy-^3H]-Prazosin: 1.0 nM (NEN, NET-823) 70-87 Ci/mmol
A: 50 mM Tris HCl; 0.1% ascorbate, pH 7.7 (incubation buffer)
Total Binding=50 μl buffer A+50 μl [^3H]prazosin+100 μl membrane
Nonsp. Bd.=50 μl 10 μM phentolamine+50 μl [^3H]prazosin+100 μl membrane
Test Cpd.=50 μl compound+50 μl [^3H]prazosin+100 μl membrane
Compounds to be evaluated are weighed out to yield a 10 mM stock solution in DMSO in a 24 well polystyrene plate. This is diluted to a 0.5 mM stock in dH2O. Serial dilutions in Buffer A are made from which 50 μl additions to the plate are made in duplicate in order to achieve the final concentrations desired. Typically, one 96 well plate is used to evaluate 11 compounds at 4 concentrations (10^−6-10^−9 M) in duplicate. Total binding and nonspecific binding are determined in quadruplicate. Usually one standard is run with each assay.
[^3H]Prazosin is made up in Buffer A such that when 50 μl are added per well the final concentration is 1.0 nM in a final assay volume of 200 μl. The final concentration should be verified by running a sample in a scintillation counter prior to adding the [^3H]prazosin to the 96 well plate. Note: The radioactivity should be prepared just before the additions are made so that it is not allowed to sit on the bench for very long.
Incubation & Filtration: Once buffer, compounds, [^3H]prazosin and membrane have been added (and mixed), the 96 well plates are incubated for 40 min at 37° C. and spaced 3-5 min apart. At 40 min, the plates are filtered using a Tomtec Automated Cell Harvester. Filtration is immediately followed by washes of ice cold Buffer B (total vol. ˜7 ml).
Analysis of Results: Raw DPM and CPM data are captured on disk and are imported into one of several software packages (Graphpad Prism Ver 2.0, Excel) residing on the LAN. Specific binding is defined as the difference between total binding and the binding in the presence of 10 μM phentolamine. Total binding is less than 10% of the total added ligand. Software using one-site competition curve analysis is employed in the calculation of IC50 and Kj (Cheng-Prusoff equation, 1973). The top and bottom of the non-linear regression are held constant at 0% and 100% inhibition. The percent inhibition at each drug concentration is the mean of duplicate determinations.

[2] = molecular target: T2, cloned human dopamine D3 receptors (Homo sapiens, UniProt P35462); experiment: [N-Methyl-3H]Spiroperidol binding to cloned human dopamine D3 receptors
T2 construct: expressed in transfected cells
How it was run: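 Competition binding on homogenized CHO cells stably expressing human D3, with 0.4 nM [3H]NMSP (final), 37 °C for 30 min, filtration and scintillation counting. Nonspecific binding defined with 3 μM S(-)-eticlopride; typically eight test concentrations, 10^−5–10^−8 M final. Ki by Cheng-Prusoff from one-site competition fits, duplicate means.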

T2 sequence (P35462 whole entry): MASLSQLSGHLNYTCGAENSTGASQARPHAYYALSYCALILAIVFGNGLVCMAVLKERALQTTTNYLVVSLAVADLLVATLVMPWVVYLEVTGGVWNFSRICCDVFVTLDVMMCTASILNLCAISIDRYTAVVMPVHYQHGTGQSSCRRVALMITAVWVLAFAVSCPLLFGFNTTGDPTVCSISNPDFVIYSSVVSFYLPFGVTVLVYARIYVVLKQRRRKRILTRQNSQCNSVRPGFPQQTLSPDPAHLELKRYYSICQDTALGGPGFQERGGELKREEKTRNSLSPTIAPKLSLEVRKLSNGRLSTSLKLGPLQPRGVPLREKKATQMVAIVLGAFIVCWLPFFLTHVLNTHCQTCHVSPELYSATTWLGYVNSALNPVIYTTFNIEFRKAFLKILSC

Row | Structure (SMILES) | Ki [1] [nM] | Ki ([2]; Table III, read-out: d3Ki) [nM] | Ki [2] [nM] | other results
1 | CC(=O)c1ccc(NC(=O)NCCCCN2CCN(c3csc4cc(F)ccc34)CC2)cc1 [compound 814932] | 2.2 |  |  | 
2 | COc1ccc(NC(=O)NCCCCN2CCN(c3csc4cc(F)ccc34)CC2)cc1 [compound 814933] | 1.8 |  |  | 
3 | CCCCc1ccc(NC(=O)NCCCCN2CCN(c3csc4cc(F)ccc34)CC2)cc1 [compound 814937] | 532 |  |  | 
4 | Cc1ccc(NC(=O)NCCCCN2CCN(c3csc4cc(F)ccc34)CC2)cc1 [compound 814941] | 13.5 |  |  | 
5 | O=C(NCCCCN1CCN(c2csc3cc(F)ccc23)CC1)NC1CCCCC1 [compound 814945] | 4.5 |  |  | 
6 | O=C(NCCCCN1CCN(c2csc3cc(F)ccc23)CC1)Nc1ccc(Br)cc1 [compound 814949] | 18.2 |  |  | 
7 | O=C(NCCCCN1CCN(c2csc3cc(F)ccc23)CC1)Nc1cccc(F)c1 [compound 814953] | 3.5 |  |  | 
8 | O=C(NCCCCN1CCN(c2csc3cc(C(F)(F)F)ccc23)CC1)NC1CCCCC1 [compound 816001] | 83.6 | 4.68 |  | 
9 | O=C(NC[C@@H]1C[C@H]1CN1CCN(c2csc3cc(C(F)(F)F)ccc23)CC1)Nc1ccc(Oc2ccccc2)cc1 [compound 832820] |  |  | 3.9 | 
10 | CC(C)c1ccc(NC(=O)NC[C@@H]2C[C@H]2CN2CCN(c3csc4cc(C(F)(F)F)ccc34)CC2)cc1 [compound 832919] |  |  | 45.2 | 
11 | COc1cccc(NC(=O)NC[C@@H]2C[C@H]2CN2CCN(c3csc4cc(C(F)(F)F)ccc34)CC2)c1 [compound 833203] |  |  | 18.2 | 
12 | O=C(NCCCN1CCCCC1)NC[C@@H]1C[C@H]1CN1CCN(c2csc3cc(C(F)(F)F)ccc23)CC1 [compound 833258] |  |  | 0.39 | 
13 | O=C(NCCCn1ccnc1)NC[C@@H]1C[C@H]1CN1CCN(c2csc3cc(C(F)(F)F)ccc23)CC1 [compound 833306, 1-(3-Imidazol-1-yl-propyl)-3-{(1R, 2R )-2-[4-(6-trifluoromethyl-benzo[b]thiophen-3yl-)-piperazin-1-ylmethyl]-cyclopropylmethyl}-urea] |  |  | 0.238 | 
14 | C[C@H]1CC[C@H](NC(=O)NC[C@@H]2C[C@H]2CN2CCN(c3csc4cc(C(F)(F)F)ccc34)CC2)CC1 [compound 833356] |  |  | 29.1 | 

The next lines start with results.

Row | Ki [1] [nM] | Ki ([2]; Table III, read-out: d3Ki) [nM] | Ki [2] [nM] | Structure (SMILES) | other results
15 | 1.5 |  |  | O=C(NCCCCN1CCN(c2csc3cc(F)ccc23)CC1)Nc1ccccc1 [compound 813581] | 
16 | 44.8 |  |  | O=C(NCCCCN1CCN(c2csc3cc(F)ccc23)CC1)Nc1ccc(C(F)(F)F)cc1 [compound 814952] | 
17 | 74.9 | 2.26 |  | CC(=O)c1ccc(NC(=O)NCCCCN2CCN(c3csc4cc(C(F)(F)F)ccc34)CC2)cc1 [compound 815993] | 
18 | 1220 | 8.87 |  | COc1ccc(NC(=O)NCCCCN2CCN(c3csc4cc(C(F)(F)F)ccc34)CC2)cc1 [compound 815994] | halpha1 % I ([1]; @1 μM): 11.9& Inh @1 μM % Inh
19 |  | 17.5 |  | CCCOc1ccc(NC(=O)NCCCCN2CCN(c3csc4cc(C(F)(F)F)ccc34)CC2)cc1 [compound 815995] | halpha1 % I ([1]; @10 μM): 42.4% Inh @10 μM
20 | 936 | 4.5 |  | Cc1ccc(NC(=O)NCCCCN2CCN(c3csc4cc(C(F)(F)F)ccc34)CC2)cc1 [compound 815997] | halpha1 % I ([1]; @1 μM): 23.5% Inh @1 μM
21 | 234 | 6.31 |  | O=C(NCCCCN1CCN(c2csc3cc(C(F)(F)F)ccc23)CC1)Nc1ccc(Br)cc1 [compound 816000] | 
22 | 435 | 12.5 |  | O=C(NCCCCN1CCN(c2csc3cc(C(F)(F)F)ccc23)CC1)Nc1ccc(C(F)(F)F)cc1 [compound 816002] | halpha1 % I ([1]; @1 μM): 30.2% Inh @1 μM
23 | 56.7 | 1.58 |  | O=C(NCCCCN1CCN(c2csc3cc(C(F)(F)F)ccc23)CC1)Nc1cccc(F)c1 [compound 816003] | 
24 | 56.8 | 2.54 |  | O=C(NCCCCN1CCN(c2csc3cc(C(F)(F)F)ccc23)CC1)Nc1ccccc1 [compound 816005] | 
25 |  |  | 2.1 | O=C(NCCCCN1CCN(c2csc3cc(C(F)(F)F)ccc23)CC1)Nc1ccc(C(=O)O)cc1 [compound 833724] | 
26 |  |  | 0.602 | O=C(NCCCCN1CCN(c2csc3cc(C(F)(F)F)ccc23)CC1)Nc1ccc(CO)cc1 [compound 833725] | 
